Each structure is given as a SMILES string.

For 15 molecules, Ki and Ratio Ki results are on record in ChEMBL document CHEMBL1155179 (J Med Chem, 2009).

Common to all, as to format: tissue-based
The target in experiment [1] is T1, Synaptic vesicular amine transporter (Rattus norvegicus, UniProt Q01827). The experiment is described as follows: Displacement of [3H]DTBZ from VMAT2 dihydrotetrabenazine binding site in rat brain synaptic vesicle by scintillation counting. (Displacement assays read how much labelled ligand stays bound in the presence of the test substance.)
T1 sequence (Q01827 whole entry): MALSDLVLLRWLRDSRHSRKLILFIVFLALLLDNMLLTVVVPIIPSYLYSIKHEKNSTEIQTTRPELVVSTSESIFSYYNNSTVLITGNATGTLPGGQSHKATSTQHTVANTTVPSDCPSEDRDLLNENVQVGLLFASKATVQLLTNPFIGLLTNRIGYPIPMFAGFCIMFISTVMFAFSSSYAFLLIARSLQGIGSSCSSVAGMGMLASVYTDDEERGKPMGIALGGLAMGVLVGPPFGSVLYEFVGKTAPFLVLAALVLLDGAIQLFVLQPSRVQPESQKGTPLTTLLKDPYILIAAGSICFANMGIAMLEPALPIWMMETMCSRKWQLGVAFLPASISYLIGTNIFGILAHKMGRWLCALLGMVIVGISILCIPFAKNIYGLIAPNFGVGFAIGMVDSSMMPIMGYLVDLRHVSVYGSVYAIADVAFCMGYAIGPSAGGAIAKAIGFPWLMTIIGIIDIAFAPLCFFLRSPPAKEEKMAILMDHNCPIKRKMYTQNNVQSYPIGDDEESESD
The target of experiment [2] is T1, Synaptic vesicular amine transporter. Put plainly: Inhibition of [3H]dopamine uptake at VMAT2 in rat brain synaptic vesicle by liquid scintillation spectroscopy.
Experiment [3] deals with Synaptic vesicular amine transporter (Rattus norvegicus) (UniProt Q01827). The experiment is described as follows: Ratio of Ki for displacement of [3H]DTBZ from VMAT2 dihydrotetrabenazine binding site in rat brain synaptic vesicle to Ki for inhibition of [3H]dopamine uptake at VMAT2 in rat brain synaptic vesicle.
Sequence of Synaptic vesicular amine transporter (Rattus norvegicus) (Q01827 whole entry): as above

The Ki is the dissociation constant of the complex between target and ligand, obtained from inhibition or displacement. A low value points to a stronger hold on the target. Regarding `OC[C@H](c1ccccc1)N1[C@H](CCc2ccccc2)CC[C@H]1CCc1ccccc1`, the Ki stood at 5050 nM in experiment [1] and 1940 nM in experiment [2]. Moreover, in experiment [3], the Ratio Ki was 2.6.

In the case of `c1ccc(CC[C@H]2CCC[C@@H](CCc3ccccc3)N2)cc1`, in experiment [2], the Ki is 23 nM. Moreover, in experiment [3], the Ratio Ki was 100.

Take `CN1[C@@H](Cc2ccccc2)CC[C@H]1Cc1ccccc1`: the Ki in experiment [1] was 2460 nM; in experiment [2] it was 19 nM. Moreover, the Ratio Ki in experiment [3] came to 130.

As to `CN1[C@H](CCc2ccccc2)CC[C@H]1CCc1ccccc1`, the Ki amounted to 3970 nM in experiment [1] and 120 nM in experiment [2]. Further, in experiment [3], the Ratio Ki came out at 33.1.

Turning to `CN1[C@H](CCc2ccccc2)CC[C@@H]1CCc1ccccc1`, the Ki is 8800 nM in experiment [1] and 270 nM in experiment [2]. Also, the Ratio Ki in experiment [3] stood at 32.6.

For `CN1[C@@H](CCc2ccccc2)CC[C@@H]1CCc1ccccc1`, the Ki in experiment [1] stood at 14500 nM; in experiment [2] it was 170 nM. In addition, the Ratio Ki in experiment [3] amounted to 85.

As to `c1ccc(C[C@H]2CC[C@@H](Cc3ccccc3)N2)cc1`, the results for the Ki in experiment [1] and in experiment [2] were 1640 nM and 9.3 nM, respectively. The Ratio Ki in experiment [3] turned out to be 176.

`OC[C@H](c1ccccc1)N1[C@H](CCc2ccccc2)CC[C@@H]1CCc1ccccc1`: the figures for the Ki in experiment [1] and in experiment [2] were 4340 nM and 1290 nM, respectively. Further, in experiment [3], the Ratio Ki was found to be 3.36.

Consider `OC[C@@H](c1ccccc1)N1[C@H](CCc2ccccc2)CC[C@@H]1CCc1ccccc1`, for which the figures for the Ki in experiment [1] and in experiment [2] were 2750 nM and 140 nM, respectively. Besides, the Ratio Ki in experiment [3] came to 19.6.

In the case of `c1ccc(CC[C@H]2CC[C@H](CCc3ccccc3)N2)cc1`, the Ki in experiment [1] worked out at 1330 nM; in experiment [2], 35 nM. Besides, the Ratio Ki in experiment [3] is 38.

`OC[C@@H](c1ccccc1)N1[C@@H](CCc2ccccc2)CC[C@@H]1CCc1ccccc1`: the Ki worked out at 5610 nM in experiment [1] and 270 nM in experiment [2]. The Ratio Ki in experiment [3] is 20.7.

On to `c1ccc(CCC[C@@H]2CC[C@H](CCCc3ccccc3)N2)cc1`, for which the Ki came to 270 nM in experiment [1] and 14 nM in experiment [2]. In addition, the Ratio Ki in experiment [3] came to 19.3.

Turning to `CN1[C@H](CCCc2ccccc2)CC[C@@H]1CCCc1ccccc1`, the Ki in experiment [1] amounted to 2780 nM; in experiment [2] it was 120 nM. Moreover, the Ratio Ki in experiment [3] is 23.2.

Turning to `c1ccc(CC[C@@H]2CC[C@@H](CCc3ccccc3)N2)cc1`, the Ki in experiment [1] was determined as 3400 nM; in experiment [2], 54 nM. The Ratio Ki in experiment [3] worked out at 63.

Take `c1ccc(CC[C@@H]2CC[C@H](CCc3ccccc3)N2)cc1`: the Ki in experiment [1] came to 3060 nM; in experiment [2], 29 nM. For the same molecule, the Ratio Ki in experiment [3] worked out at 106.
